Among the data in publication PMC2905153 (Cell calcium, 2009) are IC50 values, retold here.

What is called IC50 is the concentration at which inhibition is half-maximal. A lower IC50 goes with greater potency in that assay.

The target in this assay is CRACM1/Orai1 (Homo sapiens, UniProt Q96D31). Type of assay: cell-based.
CRACM1/Orai1, sequence (Q96D31 whole entry): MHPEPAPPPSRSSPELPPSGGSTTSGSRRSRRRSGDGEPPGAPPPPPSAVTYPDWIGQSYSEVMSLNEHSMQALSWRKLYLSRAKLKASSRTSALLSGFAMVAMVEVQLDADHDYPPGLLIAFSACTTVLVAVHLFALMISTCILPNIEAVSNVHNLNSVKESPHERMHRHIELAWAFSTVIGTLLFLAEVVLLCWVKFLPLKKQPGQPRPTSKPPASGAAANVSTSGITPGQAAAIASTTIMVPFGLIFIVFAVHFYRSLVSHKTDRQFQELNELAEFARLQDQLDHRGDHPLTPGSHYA
CRACM1/Orai1, sequence (Q13586 23-685 partner): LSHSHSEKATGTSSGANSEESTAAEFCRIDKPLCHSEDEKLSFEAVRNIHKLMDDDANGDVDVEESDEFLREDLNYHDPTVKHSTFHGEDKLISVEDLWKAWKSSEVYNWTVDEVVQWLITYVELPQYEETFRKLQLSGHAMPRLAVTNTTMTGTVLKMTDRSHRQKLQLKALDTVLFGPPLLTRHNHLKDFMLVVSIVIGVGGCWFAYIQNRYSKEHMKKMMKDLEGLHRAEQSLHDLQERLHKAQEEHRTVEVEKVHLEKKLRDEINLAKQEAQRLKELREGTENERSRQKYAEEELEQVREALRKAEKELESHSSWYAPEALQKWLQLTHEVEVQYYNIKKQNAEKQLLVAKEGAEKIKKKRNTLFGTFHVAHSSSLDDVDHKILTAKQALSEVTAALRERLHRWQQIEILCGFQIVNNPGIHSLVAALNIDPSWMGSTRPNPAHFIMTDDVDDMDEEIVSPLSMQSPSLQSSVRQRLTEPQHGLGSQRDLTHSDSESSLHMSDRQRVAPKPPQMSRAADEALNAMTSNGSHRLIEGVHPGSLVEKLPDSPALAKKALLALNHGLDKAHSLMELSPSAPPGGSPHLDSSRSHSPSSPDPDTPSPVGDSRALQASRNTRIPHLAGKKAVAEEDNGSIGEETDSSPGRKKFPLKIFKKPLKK

In turn, DPB163-AE yielded an IC50 of 170 ± 68 nM.

DPB162-AE registered an IC50 of 86 ± 21 nM.
